Measurements taken from patent US7476688B2, “Cyclic amidine derivatives” (EISAI R&D Management Co., Ltd., priority 2001, dated 2009).
Where a name gives a salt, the structure may show the parent alone.

Tests used:
[1] = system: Vascular smooth muscle cells (rSMC); assay: Rat smooth muscle cell proliferation assay (thrombin-stimulated, MTT); type: cell-based; conditions: 48 h, thrombin 0.1 unit/ml, 2 days, MTT OD 590 nm, read-out: Rat SMC IC50
Experimental: Vascular smooth muscle cells (rSMC) were isolated from male SD rat aorta by the explant method. DMEM medium (Sigma) containing 10% fetal bovine serum (GibcoBRL), streptomycin and penicillin was used as the proliferation medium, and subculture was carried out at 37° C. in the presence of 5% CO2. Culture was initiated after adding 100 μl of rSMC suspension in proliferation medium at a concentration of 1×10^4 cells/ml, to a 96-well plate. After 3 days, cells were rinsed twice with 100 μl of DMEM medium, the medium was exchanged with 100 μl of DMEM medium containing 0.1% albumin (starvation medium), and serum starvation was initiated. […]
Upon adding 20 μl of MTT (3-[4,5-dimethylthiazol-2-yl]-2,5-diphenyltetrazolium bromide) dissolved in DPBS to 7.5 mg/ml, incubation was continued for 4 hours. […] As an index of cell proliferation, the OD 590 nm was measured using a plate reader (EL340, BIO-TEK Instruments Inc.), and the control OD value (OD value in the absence of the test compound) minus the OD value in the presence of the test compound was divided by the control OD value minus the blank OD value (OD value without thrombin stimulation) to determine the inhibition ratio, from which the value was calculated.

PAR1 thrombin receptor = target: T1, PAR1 thrombin receptor (Homo sapiens, UniProt P25116); assay: Receptor binding assay ([3H] high affinity TRAP, platelet membrane); conditions: displacement of 25 nM [3H] high affinity TRAP from platelet membrane, 37° C., 1 hour; read-out: RBA IC50
T1 construct: centrifuged at 40,000 g for 60 minutes to yield platelet membrane; from tissue; host or cells: platelet membrane from donor blood
T1 sequence (P25116 22-425): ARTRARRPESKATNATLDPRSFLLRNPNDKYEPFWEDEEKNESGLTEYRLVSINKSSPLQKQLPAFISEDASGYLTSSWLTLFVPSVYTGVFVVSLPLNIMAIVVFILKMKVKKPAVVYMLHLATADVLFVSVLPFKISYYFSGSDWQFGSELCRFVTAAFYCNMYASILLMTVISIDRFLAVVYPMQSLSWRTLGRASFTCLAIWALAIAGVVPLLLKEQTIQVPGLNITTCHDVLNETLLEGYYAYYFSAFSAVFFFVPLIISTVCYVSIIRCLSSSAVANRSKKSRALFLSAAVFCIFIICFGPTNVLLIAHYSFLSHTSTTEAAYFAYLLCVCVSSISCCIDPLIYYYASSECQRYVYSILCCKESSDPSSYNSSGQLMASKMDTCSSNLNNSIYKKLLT
Experimental: Blood was sampled from a healthy adult who had taken no drugs for one week, and 3.8% citric acid (a ratio of 1:9 with respect to the blood) was added as an anticoagulant. The mixture was then centrifuged at 100 g for 10 minutes at room temperature to yield platelet rich plasma (PRP). The platelet precipitate obtained, by centrifuging the PRP was homogenized with a Dounce homogenizer, and then centrifuged at 40,000 g for 60 minutes to yield platelet membrane. The platelet membrane was suspended in a solution prepared by adding DMSO (dimethyl sulfoxide) at 1% concentration to Buffer 1: a 50 mM Tris-HCl buffer containing 10 mM MgCl2 and 1 mM EGTA (ethylene glycol tetraacetic acid), and the suspension was stored at −80° C. Bovine albumin and DMSO were added to Buffer 1 at 0.1% and 20%, respectively, to make a preparation solution for the test compound. […] Next, 30 μl of liquid scintillator was added for measurement of the radioactivity of the plate using a Top Counter (Packard), the value of the radioactivity in the presence of the test compound minus non-specific binding portion was divided by the specific binding value (the value of the binding in the absence of the compound minus the non-specific binding portion) to determine the binding ratio, from which the IC50 value was calculated. […]

[2] = system: platelet rich plasma (PRP), thrombin-induced platelet aggregation; assay: Inhibitory effects on platelet aggregation using platelet rich plasma (thrombin-induced); type: cell-based; conditions: Homo sapiens, 0.1 h, thrombin 0.5-1.5 units/ml, area under aggregation curve over 6 minutes, read-out: Thr IC50
Experimental: Blood was sampled from a healthy adult who had taken no drugs for one week, and 3.8% citric acid (a ratio of 1:9 with respect to the blood) was added as an anticoagulant. The mixture was then centrifuged at 100 g for 10 minutes at room temperature to yield platelet rich plasma (PRP). The PRP-removed blood was further centrifuged at 1000 g for 10 minutes to yield platelet poor plasma (PPP). The number of platelet was counted using a multi-parameter automatic hemocyte counter (K4500, Sysmex), and the PRP was diluted to approximately 300,000/μl with the PPP. The platelet aggregation activity was determined in the following manner using an Aggregometer (MC Medical). GPRP-NH2 (final concentration 1 mM, 25 μl) was added as a fibrin polymerization inhibitor to the PRP (175 μl), after which Ca-free Tyrode solution (control) or the test compound suspension (25 μl) at different concentrations was added, incubation was performed at 37° C. for 3 minutes and then 25 μl of thrombin at the minimum concentration required to produce maximum aggregation (final concentration: optimum concentration among 0.5-1.5 units/ml) was added, for initiation of platelet aggregation. […] After addition of thrombin, the aggregation reaction was examined for 6 minutes and the areas under the aggregation curves were compared to determine the inhibition ratio, from which the IC50 value was calculated.

## CCCC1CN(CC(=O)c2cc(N(C)S(C)(=O)=O)c(O)c(C(C)(C)C)c2)C(=N)[C@@H]1c1ccccc1 (stereo in doubt) [Example 3, N-{3-tert-Butyl-2-hydroxy-5-[2-((3S,4S)-2-imino-3-phenyl-4-propyl-pyrrolidin-1-yl)-acetyl]-phenyl}-N-methyl-methanesulfonamide hydrobromide]
[1]
  IC50: 2500 nM
PAR1 thrombin receptor
  IC50: 660 nM
[2]
  IC50: 2300 nM
